The record followed here is ChEMBL document CHEMBL3217732, “Inhibition of Pseudomonas aeruginosa biofilms with a glycopeptide dendrimer containing D-amino acids” (Medchemcomm, 2011).

Data set [1] can be described thus: Binding affinity to Pseudomonas aeruginosa lectin LecB after 1 hr by enzyme-linked lectin assay.
For data set [2], the system named is Pseudomonas aeruginosa. In words: Ratio of L-fucose IC50 to compound IC50 for Pseudomonas aeruginosa lectin LecB after 1 hr by enzyme-linked lectin assay.
Data set [3] concerns Pseudomonas aeruginosa. Briefly: Inhibition of Pseudomonas aeruginosa clinical isolate A014 biofilm formation at 0.05 mM after 24 hrs using acridine orange staining by steel coupon assay. Type of data set: functional, organism-based.
The subject of data set [4] is Pseudomonas aeruginosa. In words: Ratio of FD2 IC50 to compound IC50 for Pseudomonas aeruginosa lectin LecB after 1 hr by enzyme-linked lectin assay.
For data set [5], the system named is Pseudomonas aeruginosa. Briefly: Inhibition of wild type Pseudomonas aeruginosa PAO1 biofilm formation at 0.05 mM after 24 hrs using acridine orange staining by steel coupon assay. Type of data set: functional, organism-based.
Data set [6] relates to Pseudomonas aeruginosa. In words: Inhibition of Pseudomonas aeruginosa clinical isolate A021 biofilm formation at 0.05 mM after 24 hrs using acridine orange staining by steel coupon assay. Type of data set: functional, organism-based.
Data set [7] relates to Pseudomonas aeruginosa. Briefly: Inhibition of Pseudomonas aeruginosa clinical isolate A035 biofilm formation at 0.05 mM after 24 hrs using acridine orange staining by steel coupon assay. Type of data set: functional, organism-based.
Data set [8] can be described thus: Stability of the compound in 100 mM of tris buffer at pH 7.5 after 48 hrs in presence of trypsin. Type of data set: ADME. The conditions noted are these: isolated protein, pH 7.5, 48 h.
Data set [9] is described as follows: Stability of the compound in 100 mM of tris buffer at pH 7.5 after 48 hrs in presence of chymotrypsin. In kind it is ADME. The conditions noted are these: isolated protein, pH 7.5, 48 h.
The test system of data set [10] is Serum. Briefly: Metabolic stability in human serum. Type of data set: ADME, cell-free.
A short description of data set [11]: Stability of the compound in 100 mM of tris buffer at pH 7.5 after 30 mins in presence of trypsin. In kind it is ADME. The conditions noted are these: isolated protein, pH 7.5, 0.5 h.
Data set [12] can be described thus: Stability of the compound in 100 mM of tris buffer at pH 7.5 after 30 mins in presence of chymotrypsin. The conditions noted are these: isolated protein, pH 7.5, 0.5 h. Type of data set: ADME.
A short description of data set [13]: Half life in human serum. In kind it is ADME, cell-free.

SMILES strings stand for the structures. The source made the active and inactive calls. The calls are words filed in the database; no cut-off is given here. Where a SMILES comes first, the peptide text is derived from it. Bridges are numbered along the chain shown (N, C = ends). Roman numbers before positions name the chains, in order. Side-chain parts run from the residue outwards. The star is where a group is joined. Acetyl(C-α-L-Fucp) = C[C@@H]1O[C@@H](CC(=O)*)[C@@H](O)[C@H](O)[C@@H]1O

Consider `C[C@H](O)[C@@H](O)[C@@H](O)[C@H](O)C=O` [L-FUCOSE], for which the half-maximal inhibitory concentration (IC50) in [1] came out at 11 µM. Also, in [2], the Ratio IC50 is 1.
In data set [1], `CC(C)C[C@H](NC(=O)[C@H](Cc1cnc[nH]1)NC(=O)[C@H](CCCCNC(=O)[C@H](CC(C)C)NC(=O)[C@H](CCCCN)NC(=O)[C@H](Cc1ccccc1)NC(=O)[C@H](CCCCNC(=O)[C@H](CC(C)C)NC(=O)[C@@H]1CCCN1C(=O)[C@H](CCCCN)NC(=O)C[C@@H]1O[C@@H](C)[C@@H](O)[C@@H](O)[C@@H]1O)NC(=O)[C@H](CC(C)C)NC(=O)[C@@H]1CCCN1C(=O)[C@H](CCCCN)NC(=O)C[C@@H]1O[C@@H](C)[C@@H](O)[C@@H](O)[C@@H]1O)NC(=O)[C@H](CC(C)C)NC(=O)[C@H](CCCCN)NC(=O)[C@H](Cc1ccccc1)NC(=O)[C@H](CCCCNC(=O)[C@H](CC(C)C)NC(=O)[C@@H]1CCCN1C(=O)[C@H](CCCCN)NC(=O)C[C@@H]1O[C@@H](C)[C@@H](O)[C@@H](O)[C@@H]1O)NC(=O)[C@H](CC(C)C)NC(=O)[C@@H]1CCCN1C(=O)[C@H](CCCCN)NC(=O)C[C@@H]1O[C@@H](C)[C@@H](O)[C@@H](O)[C@@H]1O)C(N)=O` gave a half-inhibitory concentration (IC50) of 0.15 µM. Also, the Ratio IC50 in data set [2] was 73.3.
As for `CC(C)C[C@@H](NC(=O)[C@@H](Cc1cnc[nH]1)NC(=O)[C@@H](CCCCNC(=O)[C@@H](CC(C)C)NC(=O)[C@@H](CCCCN)NC(=O)[C@@H](Cc1ccccc1)NC(=O)[C@@H](CCCCNC(=O)[C@@H](CC(C)C)NC(=O)[C@H]1CCCN1C(=O)[C@@H](CCCCN)NC(=O)C[C@@H]1O[C@@H](C)[C@@H](O)[C@@H](O)[C@@H]1O)NC(=O)[C@@H](CC(C)C)NC(=O)[C@H]1CCCN1C(=O)[C@@H](CCCCN)NC(=O)C[C@@H]1O[C@@H](C)[C@@H](O)[C@@H](O)[C@@H]1O)NC(=O)[C@@H](CC(C)C)NC(=O)[C@@H](CCCCN)NC(=O)[C@@H](Cc1ccccc1)NC(=O)[C@@H](CCCCNC(=O)[C@@H](CC(C)C)NC(=O)[C@H]1CCCN1C(=O)[C@@H](CCCCN)NC(=O)C[C@@H]1O[C@@H](C)[C@@H](O)[C@@H](O)[C@@H]1O)NC(=O)[C@@H](CC(C)C)NC(=O)[C@H]1CCCN1C(=O)[C@@H](CCCCN)NC(=O)C[C@@H]1O[C@@H](C)[C@@H](O)[C@@H](O)[C@@H]1O)C(N)=O`, the inhibition result in data set [3], in data set [5], in data set [6] and in data set [7] was “Active” in each case. This compound yielded a half-inhibitory concentration (IC50) in data set [1] of 0.66 µM. Moreover, the Ratio IC50 in [2] turned out to be 16.7; in data set [4], 4.7. Besides, the Stability entry in data set [8], in data set [9] and in data set [10] was “Stable” each time.
`CC[C@H](C)[C@H](NC(=O)[C@H](Cc1cnc[nH]1)NC(=O)[C@H](CCCCNC(=O)[C@@H](NC(=O)[C@H](CCCCN)NC(=O)[C@H](Cc1ccccc1)NC(=O)[C@H](CCCCNC(=O)[C@H](CC(C)C)NC(=O)[C@@H]1CCCN1C(=O)[C@H](CCCCN)NC(=O)C[C@@H]1O[C@@H](C)[C@@H](O)[C@@H](O)[C@@H]1O)NC(=O)[C@H](CC(C)C)NC(=O)[C@@H]1CCCN1C(=O)[C@H](CCCCN)NC(=O)C[C@@H]1O[C@@H](C)[C@@H](O)[C@@H](O)[C@@H]1O)[C@@H](C)CC)NC(=O)[C@@H](NC(=O)[C@H](CCCCN)NC(=O)[C@H](Cc1ccccc1)NC(=O)[C@H](CCCCNC(=O)[C@H](CC(C)C)NC(=O)[C@@H]1CCCN1C(=O)[C@H](CCCCN)NC(=O)C[C@@H]1O[C@@H](C)[C@@H](O)[C@@H](O)[C@@H]1O)NC(=O)[C@H](CC(C)C)NC(=O)[C@@H]1CCCN1C(=O)[C@H](CCCCN)NC(=O)C[C@@H]1O[C@@H](C)[C@@H](O)[C@@H](O)[C@@H]1O)[C@@H](C)CC)C(N)=O` (I: {Acetyl(C-α-L-Fucp)}-KPLK([Leu-Pro-Lys-Acetyl(C-α-L-Fucp)])FKIKHI-NH2 / II: {Acetyl(C-α-L-Fucp)}-KPLK([Leu-Pro-Lys-Acetyl(C-α-L-Fucp)])FKI; amide I:8-II:C) showed a concentration for half-maximal inhibition (IC50) in data set [1] of 0.14 µM. In addition, in data set [2], the Ratio IC50 was determined as 78.6. Also, the Stability entry in [11] and in data set [12] was “Unstable” each time. The compound further had a half-life in data set [13] of 60 h.
